Target: Procathepsin L (Homo sapiens, UniProt P07711)
Assay: Assay buffer: 100 mM potassium phosphate pH 6.5, EDTA-Na 5 mM, Triton X-100 0.001%, DDT 5 mM. […] AMC=7-Amino-4-Methyl-Coumarin. […] Excitation 360 nm, Emission 465 nm. Enzyme is added to the substance dilutions in 96-well microtitre plates and the reaction is started with substrate.

Chain of Procathepsin L (P07711 whole entry): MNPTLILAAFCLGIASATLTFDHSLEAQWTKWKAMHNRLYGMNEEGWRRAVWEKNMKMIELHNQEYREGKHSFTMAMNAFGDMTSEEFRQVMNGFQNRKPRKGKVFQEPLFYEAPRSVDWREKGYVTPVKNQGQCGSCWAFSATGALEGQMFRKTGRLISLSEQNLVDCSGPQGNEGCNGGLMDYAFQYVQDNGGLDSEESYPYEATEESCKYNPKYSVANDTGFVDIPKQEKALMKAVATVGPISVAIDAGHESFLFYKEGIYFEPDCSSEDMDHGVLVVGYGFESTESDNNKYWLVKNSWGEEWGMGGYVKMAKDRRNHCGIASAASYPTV

N#Cc1ccc2c(c1)C(=O)N[C@H](C(=O)NC1(C#N)CC1)Cc1ccc(c(Cl)c1)OC/C=C/CO2
IC50: 6.9 nM

Reference: ChEMBL document CHEMBL3886572, “Cyclic amides” (2016)
